This note sets out measurements from ChEMBL document CHEMBL1148849, “Synthesis and structure evaluation of a novel cantharimide and its cytotoxicity on SK-Hep-1 hepatoma cells” (2007).

Assay [1] deals with SK-HEP1. Briefly: Cytotoxicity against human SK-HEP-1 cells assessed as 50 percent MTS reduction after 48 hrs. It is filed as functional. A general note: Tetrazolium assays rely on reduction of a dye to a coloured formazan, in cell work by metabolically active cells.
For the next assay, the system named is MCF7. Briefly: Apoptotic effect on MCF7 cells assessed as induction of shrinkage at 25 ug/mL after 48 hrs. It is filed as functional, cell-based. Conditions: Homo sapiens.
The subject of assay [2] is SK-HEP1. Briefly: Cytotoxicity against human SK-HEP-1 cells assessed as inducing cell shrinkage after 48 hrs by MTS assay. Type of assay: functional, cell-based.
Assay [3] has as its system SK-HEP1. Briefly: Cytotoxicity against human SK-HEP-1 cells assessed as inducing loss of colony formation by MTS assay. Type of assay: functional, cell-based.
For assay [4], the system named is SK-HEP1. Briefly: Effect on apoptosis in human SK-HEP-1 cells at 25 ug/mL after 48 hrs by TUNEL method. Type of assay: functional, cell-based.
Assay [5] has as its system SK-HEP1. Briefly: Effect on apoptosis in human SK-HEP-1 cells assessed as increase in caspase 3 activation at 25 ug/mL after 48 hrs. It is filed as functional, cell-based.
The test system of the next assay is LNCaP. Briefly: Apoptotic effect on LNCap cells assessed as induction of shrinkage at 25 ug/mL after 48 hrs. It is filed as functional, cell-based. Conditions: Homo sapiens.

The source made the active and inactive calls. The calls are words filed in the database; no cut-off is given here.

Take `COc1ccc2nc(N3C(=O)[C@@]4(C)[C@H]5CC[C@H](O5)[C@@]4(C)C3=O)sc2c1`: the Activity with SK-HEP1 [1] came to 6.25 µg/mL. In addition, the outcome in the assay with MCF7, in the assay on SK-HEP1 [2], in the assay with SK-HEP1 [3], with SK-HEP1 [4], in the assay with SK-HEP1 [5] and with LNCaP was Active.

As for `Cc1ccc2nc(N3C(=O)[C@@]4(C)[C@H]5CC[C@H](O5)[C@@]4(C)C3=O)sc2c1`, in the assay on SK-HEP1 [1], the Activity is 12.5 µg/mL. Further, the outcome with SK-HEP1 [2], in the assay on SK-HEP1 [3], in the assay with SK-HEP1 [4] and in the assay on SK-HEP1 [5] was Active.
